Experimental data published in US10676474B2, “1,6-naphthyridine derivatives as CDK4/6 inhibitor” (CSTONE PHARMACEUTICALS, priority 2016, dated 2020).
Values after ≈ are worked out from the molar mass of the structure shown.

Tests used:
[1] = Metabolic stability in human liver microsomes; assay type: in vitro ADME; settings: 0.5 mg/mL protein, read-out: Human T1/2
Procedure: (§1) This assay is used to test the metabolic stability of tested substances in rats, mice and human liver microsomes.
(§2) 1) The tested compound with concentration of 1 μM was co-incubated with liver microsomes with a protein concentration of 0.5 mg/mL under a reducing coenzyme II regeneration system in a 37° C. water bath.
(§3) 2) The positive controls include: testosterone (3A4 substrate), propafenene (2D6 substrate) and diclofenac (2C9 substrate). The incubation condition of the positive controls was consistent with that of the compound.
(§4) 3) The reaction time points were: 0, 5, 10, 20, 30 and 60 minutes, and the reaction is terminated at the corresponding time point using a termination solution containing an internal standard. The compounds were also incubated with microsomes for 60 minutes without a reducing coenzyme II regeneration system and served as a negative control.
(§5) 4) Each time point was a single point (n=1).
(§6) 5) The sample was determined by LC/MS/MS, and the compound concentration was shown as the ratio of the peak area of the compound to the peak area of the internal standard (non-standard).
(§7) 6) In the project report summary, the half-life and the clearance rate would be calculated.

[2] = Two-way permeability evaluation assay of Caco-2 cells; settings: human, Caco-2, pH 7.4
Caco-2 cells = assay: as above; settings: Caco-2
physchem = settings: phosphate buffer, pH 7.4, aqueous buffer, kinetic from dmso stock
[3] = Metabolic stability in mouse liver microsomes; assay type: in vitro ADME; settings: 0.5 mg/mL protein, read-out: Mice T1/2
Procedure: as §1, §2, §3, §4, §5, §6, §7

[4] = test system: non-small cell lung cancer NCI-H358 model; assay: In vivo pharmacodynamic study (2), NCI-H358 model, tumor volume; design: species or system BALB/c nude mice; settings: for Gross tumor volume (Day 1): Day 1, Table 6-2; for Gross tumor volume (Day 28): Day 28, Table 6-2
Procedure: The in vivo pharmacodynamic experiments were performed on the BALB/c nude mice implanted subcutaneously with the non-small cell lung cancer NCI-H358 model.
All of the cages, beddings and water were disinfected before use. All of the animals were permitted free access to a standard certified commercial laboratory diet. A total of 86 mice purchased from Vital River Laboratory Animal Co., LTD, Beijing were used for the study. The animal information of the experiments in Example 34 was as follows: BALB/c nude mice, female, 6-8 weeks, weighing approximately 16-18 g, were placed in a single ventilated cage (4 mice per cage) under a special pathogen free environment. All of the cages, beddings and water were disinfected before use. All of the animals were permitted free access to a standard certified commercial laboratory diet. A total of 56 mice purchased from Shanghai Lingchang Biotechnology Co., Ltd. were used for the study.
Each mouse was implanted subcutaneously with NCI-H358 tumor cells in the right back for tumor growth. The dosing initiated when the average tumor volume reached about 100-200 mm^3. […] The tumor volume was measured twice a week using a two-dimensional caliper, and the volume was measured in mm^3, calculated by the following the formula: V=0.5 a×b^2, wherein, a and b were the long and short diameters of the tumor, respectively. The antitumor efficacy was determined by dividing the average increase in the tumor volume of the animals treated with the compound by the average increase in the tumor volume of the untreated animals, and the safety of the compound was determined by the change in the body weight of the animal treated with the compound.
TGI: Tumor Growth Inhibition.

[5] = Metabolic stability in rat liver microsomes; assay type: in vitro ADME; settings: 0.5 mg/mL protein, read-out: Rats T1/2
Procedure: as §1, §2, §3, §4, §5, §6, §7

CDK6/cyclin D1 = target: T1, CDK6/cyclin D1 (Homo sapiens, UniProt Q00534); assay: Enzyme activity assay CDK6/cyclin D1 (Lance Ultra); assay type: biochemical; settings: 0.8 nM CDK6/cyclin D1, 250 μM ATP, 180 minutes
T1 construct: purchased Life technology
T1 sequence (Q00534 whole entry): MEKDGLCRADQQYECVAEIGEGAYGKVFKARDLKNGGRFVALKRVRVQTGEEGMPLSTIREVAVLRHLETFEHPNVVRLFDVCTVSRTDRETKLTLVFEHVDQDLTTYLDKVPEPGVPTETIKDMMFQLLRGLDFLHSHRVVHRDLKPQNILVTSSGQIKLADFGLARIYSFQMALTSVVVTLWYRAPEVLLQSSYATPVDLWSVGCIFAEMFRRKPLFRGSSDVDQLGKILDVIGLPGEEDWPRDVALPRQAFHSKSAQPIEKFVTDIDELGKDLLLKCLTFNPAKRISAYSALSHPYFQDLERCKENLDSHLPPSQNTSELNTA
T1 sequence (P24385 whole entry partner): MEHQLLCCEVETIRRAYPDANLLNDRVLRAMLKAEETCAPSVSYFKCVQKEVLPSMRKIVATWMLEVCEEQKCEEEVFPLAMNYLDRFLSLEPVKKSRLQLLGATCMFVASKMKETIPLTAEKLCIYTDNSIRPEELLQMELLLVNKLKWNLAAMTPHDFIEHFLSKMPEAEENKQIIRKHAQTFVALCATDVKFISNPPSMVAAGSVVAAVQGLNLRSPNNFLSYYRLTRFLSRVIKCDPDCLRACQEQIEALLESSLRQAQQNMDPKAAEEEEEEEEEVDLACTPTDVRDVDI
Procedure: CDK4/cyclin D1, CDK6/cyclin D1 (Life technology). ULight labeled polypeptide substrates ULight-4E-BP1 and ULight-MBP (PerkinElmer). Europium labeled anti-myelin basic protein antibody and europium labeled rabbit-derived antibody (PerkinElmer). Envision Multi-label Analyzer (PerkinElmer) for signal detection.
They were respectively dissolved in an enzyme buffer solution comprising: 50 mM hydroxyethylpiperazine ethanesulfuric acid solution at pH 7.5, 1 mM ethylenediaminetetraacetic acid, 10 mM magnesium chloride, 0.01% Brij-35, 2 mM dithiothreitol. After the reaction was started, the OptiPlate 384-well plate was sealed with a top heat seal film TopSeal-A and incubated at room temperature for 180 minutes.
The termination buffer solution of the enzymatic reaction was prepared, and EDTA was dissolved in a 1-fold diluted assay buffer solution. The reaction was terminated and incubated at room temperature for 5 minutes. 5 μL of the assay mixed solution (prepared with europium labeled anti-myelin basic protein antibody and europium labeled rabbit-derived antibody, respectively) was added to the reactions of CDK4/cyclin D1 and CDK6/cyclin D1, respectively, and incubated at room temperature for 60 minutes. The reaction signal was detected by Envision according to the time-resolved fluorescence resonance energy transfer theory.

[6] = In vivo pharmacodynamic study (3), HCT-116 model, animal weight; design: species or system BALB/c nude mice; settings: 60 mg/kg(D0-D11), 120 mg/kg (D12-D20), PO
Procedure: The in vivo pharmacodynamic experiments were performed on the BALB/c nude mice implanted subcutaneously with the colorectal cancer HCT-116 model.
BALB/c nude mice, female, 6-8 weeks, weighing approximately 18-22 g, were placed in a single ventilated cage (3-5 mice per cage) under a special pathogen free environment. All of the cages, beddings and water were disinfected before use. All of the animals were permitted free access to a standard certified commercial laboratory diet. A total of 48 mice purchased from Shanghai Lingchang Biotechnology Co., Ltd. were used for the study. Each mouse was implanted subcutaneously with 0.2 mL of 5×10^6 HCT-116 cells in the right back for tumor growth. The dosing in groups initiated when the average tumor volume reached about 132 mm^3. The tumor volume was measured twice a week using a two-dimensional caliper, and the volume was measured in mm^3, calculated by the following the formula: V=0.5 a×b^2, wherein, a and b were the long and short diameters of the tumor, respectively. The antitumor efficacy was determined by dividing the average increase in the tumor volume of the animals treated with the compound by the average increase in the tumor volume of the untreated animals.

- half-life at 1 μM [1]: 43.1 min
- Papp A→B at 2 h, 2 μM [2]: 1.15 ×10⁻⁶ cm/s
- Papp B→A at 2 h, 2 μM [2]: 16 ×10⁻⁶ cm/s
- efflux ratio at 2 h, 2 μM [2]: 14
- Category Efflux transporter substrate (Caco-2 cells): Highly
- Category Permeability (Caco-2 cells): Low
- solubility kinetic at 24 h (physchem): 194 µM (≈ 101 µg/mL)
- half-life at 1 μM [3]: 40.2 min
- half-life at 1 μM [5]: > 145 min
- IC50 (CDK6/cyclin D1): 3.65 nM
- Changes in animal weight, 0 day ([6]; QD × 21, 0 day): 0%
- Changes in animal weight, 7 days ([6]; QD × 21, 7 days): 2.5%
- Changes in animal weight, 14 days ([6]; QD × 21, 14 days): −2.3%
- Changes in animal weight, 21 days ([6]; QD × 21, 21 days): −5.9%
Structure (SMILES): CC(=O)c1c(C)c2cnc(Nc3cnc(N4CCN(CCN(C)C)CC4)cn3)cc2n(C2CCCC2)c1=O [Example 34]
- Gross tumor volume (Day 1) ([4]; 20 mg/kg orally daily): 149 ± 18 mm^3
- TGI (Day 28) ([4]; 20 mg/kg orally daily): 15.3%
- Gross tumor volume (Day 28) ([4]; 20 mg/kg orally daily): 940 ± 70 mm^3
- Gross tumor volume (Day 1) ([4]; 60 mg/kg orally daily): 169 ± 27 mm^3
- TGI (Day 28) ([4]; 60 mg/kg orally daily): 32.1%
- Gross tumor volume (Day 28) ([4]; 60 mg/kg orally daily): 804 ± 103 mm^3
- Gross tumor volume (Day 1) ([4]; 150 mg/kg orally daily): 149 ± 18 mm^3
- TGI (Day 28) ([4]; 150 mg/kg orally daily): 92.9%
- Gross tumor volume (Day 28) ([4]; 150 mg/kg orally daily): 215 ± 34 mm^3
